row,Compound,melting point
1,CC1=C(C)C(O)N(c2nnc(C(C)(C)C)s2)C1=O (stereo unspecified),179 to 182 °C
2,CCOC(=O)c1cc(=O)n(Cc2ccc(S(=O)(=O)O)cc2S(=O)(=O)O)[nH]1,> 300 °C
3,CC(C)OCc1nc2nccnc2c(=O)[nH]1,198 to 199 °C
4,CC(NNC=NN)C(=O)O (stereo unspecified),239 to 241 °C
5,CC(=O)c1c(O)cccc1OCC(O)COc1ccc(Cl)cc1Cl (stereo unspecified),130 to 132 °C
6,CCc1cc(Cc2cc(CC)c(N=C=O)c(CC)c2)cc(CC)c1N=C=O,56 to 57 °C
7,COCCOc1ccc2cc3ccccc3cc2c1,131 to 134 °C
8,NC(=O)CN1C(=O)COc2cc(F)ccc21,212 to 214 °C
9,COc1ccc(C(=O)C#N)cc1,51 to 53 °C
10,CCCC[C@H](NC(=O)OC(C)(C)C)C(=O)CCCc1cccs1,50.5 to 52.5 °C
11,CC(=O)OC1CSC(Oc2ccc(-c3cccnc3C)nc2)C(OC(C)=O)C1OC(C)=O (stereo unspecified),198 to 200 °C
12,CCC(C)(O)CNc1c(N)c(Cl)nc2ccccc12 (stereo unspecified),99 to 101 °C
13,CN1C(=O)[C@H](NC(=O)/C=C/c2ccc(I)cc2)N=C(c2ccccc2)c2ccccc21,137 to 140 °C
14,CCCCCCCCCCCCOC(=O)c1ccc2oc3ccccc3c(=O)c2c1,79 to 81 °C
15,CC(C)(C)C(=O)Nc1ccc(-c2ccncc2)cc1,274 to 279 °C
16,COc1cc(C=O)c(OC)cc1C,83 °C
17,CC(C#N)(Cn1nnc2cc(Cl)ccc21)NC(=O)c1ccc(OC(F)(F)F)cc1 (stereo unspecified),135 °C
18,CC(CO)(c1ccc(Cl)cc1)N1CCN(c2ccc(CO)c(Cl)c2)CC1 (stereo unspecified),126 to 130 °C
19,COc1cc(Nc2c(C#N)cnc3cc(-c4ccc(C(=O)O)cc4)ccc23)c(Cl)cc1Cl,282 to 283 °C
20,CC(=C(F)c1ccccc1)c1ccc2c(c1)C(C)(C)CCC2(C)C,100 °C
21,CCC(Oc1cccc(C(F)F)c1Cl)C1=NCCN1 (stereo unspecified),96 to 97 °C
22,CC1(C)NCCc2ccccc2C1c1ccccc1 (stereo unspecified),99 to 100 °C
23,Oc1ccc(-c2c[nH]c(-c3cccnc3)n2)cc1,315 to 318 °C
24,CN(c1ncc2ncnc(Nc3ccc(F)c(Cl)c3)c2n1)[C@H]1CC[C@H](N)CC1,203 to 205 °C
25,NC(=O)c1[nH]c2ccc(C(O)(C(F)(F)F)C(F)(F)F)cc2c1-c1ccccc1,220 to 224 °C
26,CCCNC(=O)C(C)Cc1ccc2cccc(Cc3ccc(C(=O)O)cc3OC)c2c1 (stereo unspecified),199 to 200 °C

row,Compound,melting point
1,CC(C)CCN1C(=O)C(NC(=O)Oc2cccc(N(C)C)c2)C(=O)N(c2ccccc2)c2cc(F)ccc21 (stereo unspecified),229 to 230 °C
2,O=S(=O)(NCC(F)(F)F)c1ccc(Nc2nc(OCC3CCCCC3)c3nc[nH]c3n2)cc1,223 to 224 °C
3,Cc1cc(C(C)NC(=O)NO)c(C)s1 (stereo unspecified),124 to 126 °C
4,CCOC(=O)C=CC(=O)N1CC1C#N (stereo unspecified),54 to 56 °C
5,N#CNC(=NC1CCN(CCCc2ccccc2)CC1)N1CCc2ccccc2C1,122 to 124 °C
6,Cc1[nH]n(-c2ccccc2)c(=O)c1C(=O)C(C)C,61 to 62 °C
7,O=C(O)/C=C(/c1ccccc1)c1ccc2ccccc2c1,170 to 172 °C
8,CCCc1nc(SC)c(C=O)n1Cc1ccc(-c2ccccc2S(=O)(=O)NC(=O)NCc2ccccc2)cc1,180 °C
9,Cc1cc(C#N)ccc1N1CCCn2c1nc1c(Cl)ccc(C(OCC(F)(F)F)C3CC3)c12 (stereo unspecified),207 to 209 °C
10,O=C(NCCO)/C(=C/c1ccc(OC(F)F)cc1)NC(=O)c1ccc(OCCc2ccccc2)cc1,155 to 157 °C
11,O=C1NCCC[C@@H]1NS(=O)(=O)c1ccc(F)cc1,153 to 156 °C
12,COc1cc(NC(=O)CCCCCN2CCCN(C)CC2)c2nccc(C)c2c1,74 to 77 °C
13,O=C1CC(C(F)(F)F)CC(=O)N1c1cc(C2OCCCO2)c(Cl)cc1F,158 to 161 °C
14,Cc1cccc(CCOc2ccc(C=C3SC(=O)NC3=O)cc2)n1,180 to 182 °C
15,CCCCCCCCCCCCC1(Cn2ccnc2)SCC(CCCC)S1 (stereo unspecified),156 to 161 °C
16,Nc1nc2ccccc2n1S(=O)(=O)C=Cc1ccccc1,191 °C
17,CCCCOC(=O)CN(C(=O)C(F)(F)F)C(N1CCOCC1)P(=O)(O)OSc1ccc(Cl)cc1 (stereo unspecified),79.5 to 81 °C
18,Cc1c(OCc2ccccc2)cc(C(C)(C)C)cc1[N+](=O)[O-],77 to 79 °C
19,COC(=O)CCc1cc2cc(Cl)ccc2n1S(=O)(=O)c1cccc(C(F)(F)F)c1,98 to 100 °C
20,CCCn1c(=O)c2c(NC)n[nH]c2n(Cc2ccccc2)c1=O,307 to 310 °C
21,Cc1cc2c(s1)Nc1ccccc1N=C2N1CCN(C)[C@@H](CO)C1,118 to 124 °C
22,Cn1c(=O)cc(-c2nc(-c3ccccc3)cs2)c2cc(C(O)c3ccc(Cl)cc3)ccc21 (stereo unspecified),192 °C
23,O=C(O)CCC(CNCC(CO)(NC(=O)OC1C2CC3CC(C2)CC1C3)C(=O)c1c[nH]c2ccccc12)c1ccccc1 (stereo unspecified),117 to 122 °C
24,CC1(C)N=C(c2ccccc2Cl)c2cc(N)ccc2N(CCO)C1=O,175 to 176 °C
25,CC(C)c1c(OCCNC(=O)OC(C)(C)C)noc1-c1cccs1,94 to 95 °C

# Source: a melting point compilation (Tetko et al.; mined from patent text by program, amines drawn as free bases though some values may be those of a salt)
